Laboratory results as given in patent US9585885B2, “Substituted pyrido[2,3-g]quinazolines as dopamine D2 receptor agonists” (KISSEI PHARMACEUTICAL CO., LTD., priority 2012, dated 2017).

Tests used:
[1] = target: T1, human serotonin 5-HT2B receptor (Homo sapiens, UniProt P41595); experiment: Stimulating activities of human serotonin 5-HT2B receptor, intracellular calcium in forced expression HEK293 cells; type: cell-based; settings: intracellular calcium concentration, mean value (n=2)
T1 construct: expressed in transfected cells; host or cells: HEK293 (transient transfection)
Procedure: Identification Test of Stimulating Activities on Human Serotonin 5-HT2B Receptor
Mostly confluent HEK293 cells were washed with PBS, followed by exfoliation with 0.05% trypsin-EDTA and the cells were suspended in D-MEM liquid medium (phenol red-free, low glucose, pyruvic acid were contained) containing fetal bovine serum (final concentration: 10%) and GlutaMax (registered mark) I (final concentration: 2 mM). The suspension was scattered at 5×10^4 cells/100 μL/well on poly-D-lysine-coated 96-well microplate (BD BioCoat (registered mark)). The scattered cells were cultured in 5% CO2 incubator at 37° C. Human serotonin 5-HT2B receptor expression plasmid was transfected in that cells according to the procedure seeing below.
Human serotonin 5-HT2B receptor expression plasmid and Lipofectamine (registered mark) 2000 (Invitrogen) were diluted to 0.008 g/L and 0.016 g/L each other with OPTI-MEM (registered mark) I Reduced-Serum Medium and incubated at room temperature. After incubation, the human serotonin 5-HT2B receptor expression plasmid-diluted liquid and Lipofectamine (registered mark) 2000-diluted liquid were mixed at an equal volume and incubated at room temperature to form a complex. The complex was dispensed at 50 μL/well on the cells prepared above. The cells were incubated in 5% CO2 incubator at 37° C. for 2 days. After incubation, the cells were used as human serotonin 5-HT2B receptor forced expression cells for measurement of intracellular calcium concentration.
The stimulating activities of human serotonin 5-HT2B receptor was determined by measuring of intracellular calcium concentration. The 30 mM dimethyl sulfoxide (DMSO) solution contained test compounds or serotonin hydrochloride (Sigma) as positive control, was diluted with assay buffer ((HBSS), 20 mM HEPES, 1.3 mM calcium chloride, 0.5 mM magnesium chloride and 0.4 mM magnesium sulfate were contained, pH7.4) to appropriate concentration.
The forced expression cells were washed with assay buffer, and 100 μL/well of fluorescent calcium indicator (Fluo-4 NW Calcium Assay Kit) was added and incubated in 5% CO2 incubator at 37° C. After incubation, 50 μL/well of each test compound was added, and the concentration of intracellular calcium was measured as fluorescent signal with FlexStation (registered mark) II (Molecular Devices). The data was analyzed by nonlinear regression and sigmoidal dose-response curve fitting using GraphPad PRISM 4.0, and values of EC50 (concentration of the compound producing half the maximal effect of the compound) were calculated. The data was presented as mean value (n=2).

[2] = tested on: unilateral 6-hydroxydopamine-lesioned hemi-Parkisonian rats; experiment: Contralateral rotational behavior in unilateral 6-hydroxydopamine-lesioned hemi-parkinsonian rats; type: in vivo, rat; settings: orally 10 mg/kg, mean value; for Total number of rotations: contralateral rotations up to 24 hours after administration; for Duration: measured up to 24 hours after administration, duration of rotational response
Procedure: 6-OHDA was dissolved at 2 mg/mL in a physiolosical saline solution containing 0.2% L-ascorbic acid. Desipramine was dissolved at 10 mg/mL in a physiolosical saline solution in a hot-water bath. Apomorphine was dissolved at 0.1 mg/mL in a physiolosical saline solution. Ropinirole was dissolved in distilled water. Test compounds were dissolved in a solution containing 2% DMA, 100 or 200 mol % hydrochloric acid, and 98% of a 0.5% methyl cellulose solution. […] (Eur J Pharmacol, 2000, vol. 408, P. 249-255) with a minor modification. Male Sprague-Dawley rats (6-weeks-old, Charles River Laboratories Japan Inc.) were anaesthetized with intraperitoneal somnopentyl (45 mg/kg) injection and placed in a stereotaxic frame (Narishige). In order to prevent 6-OHDA-induced damage of noradrenergic neurons, desipramine (25 mg/kg) was intraperitoneally injected 30 minutes before the 6-OHDA injection. After the bregma identification via a middle calvarial incision, the skull was drilled using a dental drill at the site of 6-OHDA injection. The lesion was made by injecting 6-OHDA (8 μg in 4 μL at a speed of 1 μL/minute) unilaterally into the left medial forebrain bundle by using a injection cannula (30 gauge needle) connected to a microsyringe (Hamilton) (the lesion coordinates; A/P −2.5 mm, L/M −1.8 mm, and V/D −8.0 mm, from the bregma point and surface of the skull). The cannula was carefully removed from the animal after keeping placed on the lesion site for 5 minutes. The skull was filled its hole with dental cement, disinfected, and the scalp incision was surgically sutured. Animals recovered from anesthesia were housed as usual until the day of the experiment. Three weeks after the lesion, rats were tested on the basis of their contralateral rotational behavior (single rotation was defined as a 360° turn) in response to 0.1 mg/kg apomorphine given subcutaneously. For behavioral observation, rats were placed in plastic cylinders of a diameter of 30 cm, and its contralateral rotational behaviors were videotaped and quantified by rat-rotation auto counting system R-RACS (Kissei Wellcom). On the experimental day, animals were fasted overnight, and test compounds were orally administrated at doses of 10 mg/kg. The drug potency was measured until up to 24 hours after administration as the number of contralateral rotation. […] Total number of rotations and the duration of the response in experimental period were presented as mean value. As comparative example, ropinirole as non-ergot dopamine D2 receptor agonist, was examined in a similar fashion.

[3] = target: T2, human dopamine D2 receptor (Homo sapiens, UniProt P14416); experiment: Stimulating activities of human dopamine D2 receptor, [35S]GTPγS binding to hD2R#7 (HEK293) membrane homogenates; type: biochemical; settings: [35S]GTPγS binding, membrane homogenates, mean value (n=2); read-out: EC50
T2 construct: expressed in transfected cells
Procedure: Identification Test of Stimulating Activities on Human Dopamine D2 Receptor
The cells, which were grown to confluence in 150 mm dishes (IWAKI), were harvested with isotonic buffer (50 mM Tris (Sigma), 2 mM ethylenediamine-tetraacetic acid (Invitrogen), and 125 mM sodium chloride (Wako Pure Chemicals), pH 7.4) and centrifuged at 1880×g and 4° C. for 10 minutes, and the cell pellets were then suspended in isotonic buffer. After being subjected to one cycle of freezing and thawing, the cells were centrifuged at 1880×g and 4° C. for 10 minutes, and the cell pellets were suspended in isotonic buffer. The cells were centrifuged at 1880×g and 4° C. for 10 minutes, and the cell pellets were suspended in isotonic buffer and homogenate buffer (10 mM sodium bicarbonate (Nacalai) and 5 mM ethylenediamine-tetraacetic acid, pH 7.5). The volume ratio of isotonic-to-homogenate buffer was 2. The cells were sonicated and centrifuged at 1880×g and 4° C. for 10 minutes, and the supernatants were ultracentrifuged at 80000×g and 4° C. for 30 minutes. The final cell pellets were suspended in homogenate buffer containing protease inhibitor cocktail (Nacalai) and stored at −80° C. until use. The protein concentration was determined using BCA Protein Assay Kit (Pierce) in accordance with the manufacturer's instructions.
The stimulating activities of human dopamine D2 receptor was determined by measuring the binding potential of [^35S]-guanosine 5′-[gamma-thio]triphosphate ([^35S]GTPγS, PerkinElmer) according to the method described by Newman-Tancredi A. et al. (Naunyn-Schmiedeberg's Arch Pharmacol, 1999, vol. 359, pp. 447-453) with a minor modification. Test compounds and dopamine hydrochloride (Fluka) as positive control were dissolved in dimethyl sulfoxide (CARLBIOCHEM), resulting in 30 mM. The both compounds were diluted with assay buffer (50 mM Tris, 100 mM sodium chloride, 5 mM magnesium chloride (Nacalai), 1 mM ethylenediamine-tetraacetic acid, 1 mM dithiothreitol (Wako Pure Chemicals), 10 μM guanosine diphosphate (Wako Pure Chemicals) and 0.5% bovine serum albumin (Sigma), pH 7.4) to a final concentration of 100 pM (only test compounds), 1 nM, 10 nM, 100 nM, 1 μM, 10 μM and 100 μM (only dopamine hydrochloride). The above membrane homogenates and [^35S]GTPγS were diluted with assay buffer to a final concentration of 0.06 mg/mL and 0.6 nM, respectively. The serial diluted compounds (50 μL), the diluted membrane homogenates (50 μL) and the diluted [^35S]GTPγS (50 μL) were mixed on multi-screen 96-well plate (Millipore) and shaken lightly at room temperature for 60 minutes. The reaction was terminated by vacuum filtration with three times washes of ice-cold wash buffer (50 mM Tris, 100 mM sodium chloride, 5 mM magnesium chloride, and 1 mM ethylenediamine-tetraacetic acid, pH 7.4). After drying the bottoms of the plate at 60° C., MicroScinti-40 (PerkinElmer) (30 μL) was added in the plate. The tops of the plate were sealed by TopSeal-A (PerkinElmer), and the radioactivity was determined in a TopCount NXT (registered mark)(PerkinElmer) after shaking lightly for 5-10 minutes. The data was analyzed by nonlinear regression and sigmoidal dose-response curve fitting using GraphPad PRISM 4.0 (GraphPad Software), and values of EC50 (concentration of the compound producing half the maximal effect of the compound) were calculated. The data was presented as mean value (n=2).

T1 sequence (P41595 whole entry): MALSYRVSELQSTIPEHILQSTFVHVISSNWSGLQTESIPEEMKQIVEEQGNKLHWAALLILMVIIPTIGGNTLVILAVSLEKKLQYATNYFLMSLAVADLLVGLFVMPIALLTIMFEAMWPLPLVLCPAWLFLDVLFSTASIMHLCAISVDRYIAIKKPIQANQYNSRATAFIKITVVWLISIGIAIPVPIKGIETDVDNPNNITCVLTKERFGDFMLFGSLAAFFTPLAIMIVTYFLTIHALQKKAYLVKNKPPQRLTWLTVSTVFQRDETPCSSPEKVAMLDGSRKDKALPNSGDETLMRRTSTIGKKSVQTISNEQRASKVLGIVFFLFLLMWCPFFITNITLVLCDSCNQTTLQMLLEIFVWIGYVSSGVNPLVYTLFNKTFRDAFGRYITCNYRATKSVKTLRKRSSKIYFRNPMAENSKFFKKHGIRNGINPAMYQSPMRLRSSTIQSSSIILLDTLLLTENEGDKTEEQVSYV
T2 sequence (P14416 whole entry): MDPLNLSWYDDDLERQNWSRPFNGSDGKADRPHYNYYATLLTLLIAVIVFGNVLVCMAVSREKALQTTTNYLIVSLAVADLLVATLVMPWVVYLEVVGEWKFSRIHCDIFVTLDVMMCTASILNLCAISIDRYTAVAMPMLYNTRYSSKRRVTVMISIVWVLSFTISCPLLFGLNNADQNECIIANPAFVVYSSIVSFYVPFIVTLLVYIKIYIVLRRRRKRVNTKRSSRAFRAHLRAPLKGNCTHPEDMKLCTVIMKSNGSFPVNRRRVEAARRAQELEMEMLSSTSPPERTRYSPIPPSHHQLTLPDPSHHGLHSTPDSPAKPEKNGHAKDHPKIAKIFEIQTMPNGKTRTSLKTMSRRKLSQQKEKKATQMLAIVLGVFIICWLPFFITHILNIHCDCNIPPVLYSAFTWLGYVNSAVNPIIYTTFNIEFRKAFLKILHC

For `CCCN1C[C@@H](NC(=O)N(CCc2ccccc2)CCN(C)C)C[C@@H]2Cc3nc(N)ncc3C[C@H]21` (relative stereo) [Compound 1-23, 3-[(5aR*,8S*,9aR*)-2-amino-6-propyl-5,5a,6,7,8,9,9a,10-octahydropyrido[2,3-g]quinazolin-8-yl]-1-[2-(dimethylamino)ethyl]-1-(2-phenylethyl)urea], the EC50 [1] was greater than 10000 nM, the “Total number of rotations” value [2] was 9184.0 and the Duration [2] was 870.0 minuets. It also gave an EC50 [3] of 223 nM.

In the case of `CCCN1C[C@@H](NC(=O)N(CC)CCN2CCCCC2)C[C@@H]2Cc3nc(N)ncc3C[C@H]21` (relative stereo) [Compound 1-25, 3-[(5aR*,8S*,9aR*)-2-amino-6-propyl-5,5a,6,7,8,9,9a,10-octahydropyrido[2,3-g]quinazolin-8-yl]-1-ethyl-1-[2-(piperidin-1-yl)ethylurea], the EC50 [1] is reported as greater than 10000 nM, the “Total number of rotations” value [2] is reported as 5025.0 and the Duration [2] is reported as 621.3 minuets. For the same compound, the EC50 [3] was 126 nM.

`CCCN1C[C@@H](NC(=O)N(CC)CCN(C)C)C[C@@H]2Cc3nc(N)ncc3C[C@H]21` [Compound 1-1, 3-[(5aR,8S,9aR)-2-Amino-6-propyl-5,5a,6,7,8,9,9a,10-octahydropyrido[2,3-g]quinazolin-8-yl]-1-[2-(dimethylamino)ethyl]-1-ethylurea] was tested, and the EC50 [1] was greater than 10000 nM, the “Total number of rotations” value [2] was 5038.5 and the Duration [2] was 541.3 minuets. The EC50 [3] was 64 nM.

`CCCN(CCN(C)C)C(=O)N[C@H]1C[C@@H]2Cc3nc(N)ncc3C[C@H]2N(CCC)C1` [Compound 1-2, 3-[(5aR,8S,9aR)-2-amino-6-propyl-5,5a,6,7,8,9,9a,10-octahydropyrido[2,3-g]quinazolin-8-yl]-1-[2-(dimethylamino)ethyl]-1-propylurea] was tested, and the EC50 [1] was greater than 10000 nM, the “Total number of rotations” value [2] was 2580.0 and the Duration [2] was 307.5 minuets. For the same compound, the EC50 [3] was 252 nM.

`CCCN1C[C@@H](NC(=O)N(CCN(C)C)CC(C)C)C[C@@H]2Cc3nc(N)ncc3C[C@H]21` [Compound 1-3, 3-[(5aR,8S,9aR)-2-amino-6-propyl-5,5a,6,7,8,9,9a,10-octahydropyrido[2,3-g]quinazolin-8-yl]-1-[2-(dimethylamino)ethyl]-1-(2-methylpropyl)urea] was tested, and the “Total number of rotations” value [2] was 3610.5 and the Duration [2] was 387.5 minuets.

In the case of `CCCN1C[C@@H](NC(=O)N(C)CCN(CC)CC)C[C@@H]2Cc3nc(N)ncc3C[C@H]21` [Compound 1-4, 3-[(5aR,8S,9aR)-2-amino-6-propyl-5,5a,6,7,8,9,9a,10-octahydropyrido[2,3-g]quinazolin-8-yl]-1-[2-(diethylamino)ethyl]-1-methylurea], the EC50 [1] is reported as greater than 10000 nM, the “Total number of rotations” value [2] is reported as 3975.0 and the Duration [2] is reported as 538.8 minuets. The EC50 [3] was 111 nM.

In the case of `CCCN(CCC)CCc1cccc2c1CC(=O)N2` [Ropinirole, ropinirole, reference compound], the “Total number of rotations” value [2] is reported as 276.3 and the Duration [2] is reported as 61.3 minuets.
